Measured values from PMC9572083, “Hybrids of 1,4-Quinone with Quinoline Derivatives: Synthesis, Biological Activity, and Molecular Docking with DT-Diaphorase (NQO1)” (Molecules, 2022).

How the values were obtained:
[1] = tested on: A549 cells; test: Cytotoxic activity, WST-1 assay, lung cancer A549; assay type: cell-based, human; conditions: for SI (IC50 HFF-1/IC50 cancer line) A549: HFF-1 vs A549; for IC50: Homo sapiens, lung cancer A549, 72 h, WST-1
From the text: (§1) Anticancer activity of compounds 11–14 was designated against following human cancer cell lines: melanoma (Colo-829), ovarian cancer (SK-OV-3), breast cancer (MDA-MB-231, T47D and MCF-7), lung cancer (A549) and normal fibroblasts (HFF-1). As a reference substance, the doxorubicin was used. The results are presented in Table 1 as IC50, where IC50 means the concentration of tested compounds (µM) causing the growth inhibition of 50% for given tumor cells. The negative value (Neg.) means that the IC50 is higher than 30 µM. Selectivity index (SI) as the ratio of the IC50 for normal fibroblast (HFF-1) to IC50 of the corresponding cell line, is presented in Table S2.
(§2) Compounds 7–14 and doxorubicin were tested for cytotoxic activity in vitro against panel of human cancer cell lines: melanoma (Colo-829, ATCC, Rockville, MD, USA), ovarian cancer (SK-OV-3, ATCC, Rockville, MD, USA), breast cancer (T47D, MCF-7, and MDA-MB-231, ATCC, Rockville, MD, USA) and lung cancer (A549, ATCC, Rockville, MD, USA). The cultured cells were kept at 37 °C and 5% CO2. The cells were seeded (5 × 10^4 cells/well/[…] DMEM supplemented with 10% FCS and streptomycin/penicillin) using 96-well plates (Nunc Thermo Fisher Scientific, Waltham, MA, USA). The tested compounds 7–14 with the concentration of 1–100 µg/mL DMSO were inducted with the cancer cells for 72 h. The WST-1-formazan (proliferation reagent WST-1 assay, Roche Diagnostics, Mannheim, Germany) was detected using a microplate reader at 450 nm. Results were expressed as a mean value of at least three independent experiments performed in triplicate.

[2] = tested on: Colo-829 cells; test: Cytotoxic activity, WST-1 assay, melanoma Colo-829; assay type: cell-based, human; conditions: for SI (IC50 HFF-1/IC50 cancer line) Colo-829: HFF-1 vs Colo-829; for IC50: Homo sapiens, melanoma Colo-829, 72 h, WST-1
From the text: as §1, §2

[3] = tested on: HFF-1 cells; test: Cytotoxic activity, WST-1 assay, normal fibroblasts HFF-1; assay type: cell-based; conditions: Homo sapiens, normal fibroblasts HFF-1, 72 h
From the text: as §1, §2

[4] = target: T1, NQO1 (DT-diaphorase, EC 1.6.5.5, human recombinant) (Homo sapiens, UniProt P15559); test: NQO1 substrate NADPH recycling enzymatic assay; assay type: biochemical; conditions: for NQO1 activity (enzymatic conversion rate): compound 10 µmol/L, pH 7.4, 25 °C, absorbance at 340 nm
T1 construct: purchased Sigma-Aldrich
Procedure: The interaction between 1,4-quinone moiety of hybrid and NQO1 protein leads to reduction in quinone to hydroquinone and production of reactive oxide form (ROS). According to a literature method, the ability of hybrids 11–14 and streptonigrin (ST) to be a substrate for NQO1 was examined by measuring the oxidation of NADPH to NADP^+ [29, 32].
Compounds 11–14 (10 µmol/L) were tested as NQO1 substrates using the NADPH recycling assay according to the literature method. The recombinant NQO1 (DT-diaphorase, EC 1.6.5.5, human recombinant, Sigma-Aldrich) was used, and the oxidation of NADPH to NADP^+ was measured at the absorption wavelength of 340 nm on the BioTek 800TS microplate reader (BioKom, Janki, Poland). Compounds were dissolved in dimethyl sulfoxide (2 µL) and added to the 96-well plate. The NQO1 protein (1.4 µg/mL) in 50 mmol/L potassium phosphate buffer (pH = 7.4) was added to each well (198 µL) (Nunc Thermo Fisher Scientific, Waltham, MA, USA). Once the 96-well plate was filled with the assay solutions, except the NADPH solution, it was placed into the instrument and left to sit for 5 min before starting the measurements. The enzymatic reaction was initiated by automatically dispensing the NADPH solution into the wells, and data were recorded at 10 s intervals for 5 min at 25 °C. The linear part of the absorbance vs. time graphs (the first 20 s to 1 min) was fitted, and the slopes were calculated. NADPH oxidation rates were compared with reactions lacking the tested compound. Initial velocities were calculated, and data were expressed as µmol NADPH/µmol NQO1/min. All reactions were carried out at least in triplicate.

[5] = tested on: MCF-7 cells; test: Cytotoxic activity, WST-1 assay, breast cancer MCF-7; assay type: cell-based, human; conditions: for SI (IC50 HFF-1/IC50 cancer line) MCF-7: HFF-1 vs MCF-7; for IC50: Homo sapiens, MCF7, breast cancer MCF-7, 72 h, WST-1
From the text: as §1, §2

[6] = tested on: MDA-MB-231 cells; test: Cytotoxic activity, WST-1 assay, breast cancer MDA-MB-231; assay type: cell-based, human; conditions: for SI (IC50 HFF-1/IC50 cancer line) MDA-MB-231: HFF-1 vs MDA-MB-231; for IC50: Homo sapiens, breast cancer MDA-MB-231, 72 h, WST-1
From the text: as §1, §2

[7] = tested on: T47D cells; test: Cytotoxic activity, WST-1 assay, breast cancer T47D; assay type: cell-based, human; conditions: for SI (IC50 HFF-1/IC50 cancer line) T47D: HFF-1 vs T47D; for IC50: Homo sapiens, breast cancer T47D, 72 h, WST-1
From the text: as §1, §2

[8] = tested on: SK-OV-3 cells; test: Cytotoxic activity, WST-1 assay, ovarian cancer SK-OV-3; assay type: cell-based, human; conditions: for SI (IC50 HFF-1/IC50 cancer line) SK-OV-3: HFF-1 vs SK-OV-3; for IC50: Homo sapiens, ovarian cancer SK-OV-3, 72 h, WST-1
From the text: as §1, §2

T1 sequence (P15559 whole entry): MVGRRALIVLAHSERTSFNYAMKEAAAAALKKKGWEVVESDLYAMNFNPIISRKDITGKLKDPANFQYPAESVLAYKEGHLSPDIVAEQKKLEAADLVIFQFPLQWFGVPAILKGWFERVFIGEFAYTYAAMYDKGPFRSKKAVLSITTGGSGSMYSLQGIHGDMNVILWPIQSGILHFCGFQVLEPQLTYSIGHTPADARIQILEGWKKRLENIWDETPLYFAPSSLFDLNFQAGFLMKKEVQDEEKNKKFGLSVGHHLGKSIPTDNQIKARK

`O=C1C(Cl)=C(Oc2cccc3ccc(N4CCCC4)nc23)C(=O)c2ncccc21` [Compound 11e, 6-chloro-7-{[2-(pyrrolidin-1-yl)quinolin-8-yl]oxy}quinoline-5,8-dione] was tested, and the “SI (IC50 HFF-1/IC50 cancer line) A549” value [1] was 0.94, the IC50 [1] was 12.1 ± 1.06 µM and the “SI (IC50 HFF-1/IC50 cancer line) Colo-829” value [2] was 0.76. For the same molecule, the IC50 [2] was 15 ± 0.32 µM, the IC50 [3] was 11.5 ± 0.69 µM and the “Enzymatic conversion rate relative to the 2-methyl-5,8-quinolinedione analogue” value ([4]; 11c vs 12c, 11e vs 12e) was 1.8 times. The “NQO1 activity (enzymatic conversion rate)” value (“NQO1 activity” below) [4] was 1082 ± 51 µmol NADPH/µmol NQO1/min, the “SI (IC50 HFF-1/IC50 cancer line) MCF-7” value [5] was 5.64 and the IC50 [5] was 2.03 ± 0.03 µM. For the same molecule, the “Activity against MCF-7 relative to A549” value ([5]; fold more active against MCF-7 than A549) was ~6 times, the “SI (IC50 HFF-1/IC50 cancer line) MDA-MB-231” value [6] was 5.81 and the IC50 [6] was 1.97 ± 0.13 µM. The “SI (IC50 HFF-1/IC50 cancer line) T47D” value [7] was 0.55, the IC50 [7] was 20.8 ± 1.03 µM and the “SI (IC50 HFF-1/IC50 cancer line) SK-OV-3” value [8] was 6.66. It also gave an IC50 [8] of 1.72 ± 0.09 µM.

For `O=C1C(Cl)=C(Oc2cccc3ccc(N4CCOCC4)nc23)C(=O)c2ncccc21` [Compound 11f, 6-chloro-7-{[2-(morpholin-4-yl)quinolin-8-yl]oxy}quinoline-5,8-dione], the “SI (IC50 HFF-1/IC50 cancer line) A549” value [1] was 2.03, the IC50 [1] was 12.6 ± 0.82 µM and the “SI (IC50 HFF-1/IC50 cancer line) Colo-829” value [2] was 1.83. For the same molecule, the IC50 [2] was 14 ± 1.16 µM, the IC50 [3] was 25.64 ± 0.19 µM and the “NQO1 activity” value [4] was 113 ± 19 µmol NADPH/µmol NQO1/min. The “SI (IC50 HFF-1/IC50 cancer line) MCF-7” value [5] was 1.58, the IC50 [5] was 16.21 ± 0.12 µM and the “SI (IC50 HFF-1/IC50 cancer line) MDA-MB-231” value [6] was 1.86. The IC50 [6] was 13.8 ± 1.09 µM, the “SI (IC50 HFF-1/IC50 cancer line) T47D” value [7] was 1.38 and the IC50 [7] was 18.6 ± 0.62 µM. For the same molecule, the “SI (IC50 HFF-1/IC50 cancer line) SK-OV-3” value [8] was 2.35 and the IC50 [8] was 10.9 ± 0.48 µM.

With `Cc1ccc2c(n1)C(=O)C(Oc1cccc3ccc(N4CCCC4)nc13)=C(Cl)C2=O` [Compound 12e, 6-chloro-2-methyl-7-{[2-(pyrrolidin-1-yl)quinolin-8-yl]oxy}quinoline-5,8-dione] the “SI (IC50 HFF-1/IC50 cancer line) A549” value [1] was 1.16, the IC50 [1] was 15.1 ± 0.39 µM and the “SI (IC50 HFF-1/IC50 cancer line) Colo-829” value [2] was 11.48. For the same molecule, the IC50 [2] was 1.53 ± 0.08 µM, the IC50 [3] was 17.6 ± 1.05 µM and the “NQO1 activity” value [4] was 600 ± 35 µmol NADPH/µmol NQO1/min. The “SI (IC50 HFF-1/IC50 cancer line) MCF-7” value [5] was 9.29, the IC50 [5] was 1.89 ± 0.23 µM and the “SI (IC50 HFF-1/IC50 cancer line) MDA-MB-231” value [6] was 11.71. The IC50 [6] was 1.5 ± 0.15 µM, the “SI (IC50 HFF-1/IC50 cancer line) T47D” value [7] was 1.01 and the IC50 [7] was 17.4 ± 1.3 µM. For the same molecule, the “SI (IC50 HFF-1/IC50 cancer line) SK-OV-3” value [8] was 16.72 and the IC50 [8] was 1.05 ± 0.06 µM.

With `Cc1ccc2c(n1)C(=O)C(Oc1cccc3ccc(N4CCOCC4)nc13)=C(Cl)C2=O` [Compound 12f, 6-chloro-2-methyl-7-{[2-(morpholin-4-yl)quinolin-8-yl]oxy}quinoline-5,8-dione] the “SI (IC50 HFF-1/IC50 cancer line) A549” value [1] was 1.72, the IC50 [1] was 11.6 ± 0.72 µM and the “SI (IC50 HFF-1/IC50 cancer line) Colo-829” value [2] was 1.49. For the same molecule, the IC50 [2] was 13.3 ± 0.21 µM, the IC50 [3] was 19.9 ± 0.93 µM and the “NQO1 activity” value [4] was 210 ± 20 µmol NADPH/µmol NQO1/min. For the same molecule, the “SI (IC50 HFF-1/IC50 cancer line) MCF-7” value [5] was 1.41, the IC50 [5] was 14.1 ± 0.67 µM and the “SI (IC50 HFF-1/IC50 cancer line) MDA-MB-231” value [6] was 1.95. The IC50 [6] was 10.2 ± 0.28 µM, the “SI (IC50 HFF-1/IC50 cancer line) T47D” value [7] was 1.15 and the IC50 [7] was 17.3 ± 0.26 µM. The “SI (IC50 HFF-1/IC50 cancer line) SK-OV-3” value [8] was 1.48 and the IC50 [8] was 13.5 ± 0.21 µM.

For `O=C1C(Cl)=C(Oc2cccc3ccc(N4CCCC4)nc23)C(=O)c2cnccc21` [Compound 13e, 6-chloro-7-{[2-(pyrrolidin-1-yl)quinolin-8-yl]oxy}isoquinoline-5,8-dione], the “SI (IC50 HFF-1/IC50 cancer line) A549” value [1] was 1.11, the IC50 [1] was 14 ± 0.26 µM and the “SI (IC50 HFF-1/IC50 cancer line) Colo-829” value [2] was 0.79. For the same molecule, the IC50 [2] was 19.6 ± 1.32 µM, the IC50 [3] was 15.5 ± 0.72 µM and the “NQO1 activity” value [4] was 214 ± 21 µmol NADPH/µmol NQO1/min. The “SI (IC50 HFF-1/IC50 cancer line) MCF-7” value [5] was 0.92, the IC50 [5] was 16.9 ± 0.5 µM and the “SI (IC50 HFF-1/IC50 cancer line) MDA-MB-231” value [6] was 0.93. The IC50 [6] was 16.6 ± 0.38 µM, the IC50 [7] was > 30 µM and the “SI (IC50 HFF-1/IC50 cancer line) SK-OV-3” value [8] was 0.98. The IC50 [8] was 15.8 ± 0.26 µM.
